EC50, melting point and CC50 data for 23 compounds are collected here from patent publication US11149033B2, “Heteroaryl compound, enantiomer, diastereomer or pharmaceutically acceptable salt thereof, and antiviral composition containing same as active ingredient” (priority 2016, dated 2021).

SMILES strings stand for the structures.

One data set relates to B/Florida/04/2006. Put plainly: Antiviral activity (drug efficacy evaluation by concentration) against B/Florida/04/2006. It is filed as cell-based, B type influenza virus. The following applies: read-out: EC50 B/Florida/04/2006, B/Florida/04/2006.
The subject of data set [1] is A/California/07/2009 (H1N1). Put plainly: Antiviral activity (drug efficacy evaluation by concentration) against A/California/07/2009 (H1N1). It is filed as cell-based, A type influenza virus. The following applies: Influenza A virus, H1N1, A/California/07/2009 (H1N1); read-out: EC50 A/California/07/2009 (H1N1).
The subject of a further data set is A/Perth/16/2009 (H3N2). Put plainly: Antiviral activity (drug efficacy evaluation by concentration) against A/Perth/16/2009 (H3N2). It is filed as cell-based, A type influenza virus. The following applies: Influenza A virus, H3N2, A/Perth/16/2009 (H3N2); read-out: EC50 A/Perth/16/2009 (H3N2).
The next data set can be described thus: in vitro. As to conditions: CC50 B/Florida/04/2006, cytotoxicity in the B/Florida/04/2006 assay.

Turning to `Cc1nn(Cc2nnc(SCc3ccc(-c4ccccc4)cc3)o2)c(C)c1Br` [Compound 2, 2-(([1,1′-biphenyl]-4-ylmethyl)thio)-5-((4-bromo-3,5-dimethyl-1H-pyrazol-1-yl)methyl)-1,3,4-oxadiazole], the melting point came out at 135.9 °C. For the same compound, the EC50 in the data set with B/Florida/04/2006 was greater than 50 µM. In data set [1], the EC50 was determined as 47.5 µM. The EC50 in the data set on A/Perth/16/2009 (H3N2) stood at 46.7 µM. For the same compound, the CC50 in the data set “in vitro” is greater than 50 µM.
Consider `Cc1nn(Cc2nnc(SCc3cccc(-c4ccccc4)c3)o2)c(C)c1Br` [Compound 6, 2-(([1,1′-biphenyl]-3-ylmethyl)thio)-5-((4-bromo-3,5-dimethyl-1H-pyrazol-1-yl)methyl)-1,3,4-oxadiazole], for which the melting point came to 90.3 °C. The EC50 with B/Florida/04/2006 was determined as 3 µM. The EC50 in data set [1] amounted to 2.91 µM. In addition, the EC50 in the data set on A/Perth/16/2009 (H3N2) came to 2.74 µM. Moreover, the CC50 in the data set “in vitro” is greater than 50 µM.
For the compound `Cc1nn(Cc2nnc(SCc3cccc4ccccc34)o2)c(C)c1Br` [Compound 8, 2-((4-bromo-3,5-dimethyl-1H-pyrazol-1-yl)methyl)-5-((naphthalen-1-ylmethyl)thio)-1,3,4-oxadiazole], the melting point was 112.1 °C. Also, in the data set on B/Florida/04/2006, the EC50 amounted to 7.48 µM. Moreover, the EC50 in data set [1] amounted to 6.94 µM. In the data set with A/Perth/16/2009 (H3N2), the EC50 was 10.5 µM. The CC50 in “in vitro” is greater than 50 µM.
Taken in the same sequence, the figures for `COc1ccccc1CSc1nnc(Cn2nc(C)c(Br)c2C)o1` [Compound 10, 2-((4-bromo-3,5-dimethyl-1H-pyrazol-1-yl)methyl)-5-((2-methoxybenzyl)thio)-1,3,4-oxadiazole] were 87.3 °C, 15.5 µM, 16.8 µM, 18.4 µM and greater than 50 µM.
Regarding `Cc1nn(Cc2nnc([S+]([O-])Cc3ccccc3-c3ccccc3)o2)c(C)c1Br` (stereo not shown) [Compound 12, 2-(([1,1′-biphenyl]-2-ylmethyl)sulfinyl)-5-((4-bromo-3,5-dimethyl-1H-pyrazol-1-yl)methyl)-1,3,4-oxadiazole], the melting point worked out at 48.2 °C. In the data set with B/Florida/04/2006, the EC50 is 2.61 µM. In data set [1], the EC50 turned out to be 2.51 µM. The EC50 in the data set on A/Perth/16/2009 (H3N2) is 3.26 µM. In the data set “in vitro”, this compound had a CC50 of 7.81 µM.
The like results for `CC(=O)c1ccccc1CSc1nnc(Cn2nc(C)c(Br)c2C)o1` [Compound 28, 1-(2-(((5-((4-bromo-3,5-dimethyl-1H-pyrazol-1-yl)methyl)-1,3,4-oxadiazol-2-yl)thio)methyl)phenyl)ethan-1-one] were, in that order, 63.7 °C, greater than 50 µM, greater than 50 µM, greater than 50 µM and greater than 50 µM.
For `Cc1nn(Cc2nnc(SCc3ccccc3Oc3ccccc3)o2)c(C)c1Br` [Compound 29, 2-((4-bromo-3,5-dimethyl-1H-pyrazol-1-yl)methyl)-5-((2-phenoxybenzyl)thio)-1,3,4-oxadiazole], the melting point was 92.3 °C. Moreover, the EC50 in the data set on B/Florida/04/2006 amounted to 1.99 µM. The EC50 in data set [1] amounted to 1.2 µM. Further, the EC50 in the data set on A/Perth/16/2009 (H3N2) was 1.4 µM. The CC50 in “in vitro” amounted to 5.23 µM.
Turning to `Cc1ccc(-c2ccccc2CSc2nnc(Cn3nc(C)c(Br)c3C)o2)cc1` [Compound 32, 2-((4-bromo-3,5-dimethyl-1H-pyrazol-1-yl)methyl)-5-(((4′-methyl-[1,1′-biphenyl]-2-yl)methyl)thio)-1,3,4-oxadiazole], the melting point worked out at 102.3 °C. Also, the EC50 with B/Florida/04/2006 was found to be 1.38 µM. In addition, the EC50 in data set [1] came out at 0.6 µM. The EC50 in the data set on A/Perth/16/2009 (H3N2) stood at 0.5 µM. In addition, in “in vitro”, half-maximal cytotoxicity (CC50) was put at 7.32 µM.
Taken in the same sequence, the figures for `Cc1nn(Cc2nnc(SCc3ccccc3-c3ccc(Cl)cc3)o2)c(C)c1Br` [Compound 33, 2-((4-bromo-3,5-dimethyl-1H-pyrazol-1-yl)methyl)-5-(((4′-chloro-[1,1′-biphenyl]-2-yl)methyl)thio)-1,3,4-oxadiazole] were 84.7 °C, 1.46 µM, 0.6 µM, 0.5 µM and 6.28 µM.
The like results for `Cc1nn(Cc2nnc(SCc3ccccc3-c3ccsc3)o2)c(C)c1Br` [Compound 35, 2-((4-bromo-3,5-dimethyl-1H-pyrazol-1-yl)methyl)-5-((2-(thiophen-3-yl)benzyl)thio)-1,3,4-oxadiazole] were, in that order, 86.9 °C, 1.88 µM, 0.7 µM, 0.8 µM and greater than 50 µM.
Taken in the same sequence, the figures for `COC(=O)c1ccccc1CSc1nnc(Cn2nc(C)c(Br)c2C)o1` [Compound 37, methyl 2-(((5-((4-bromo-3,5-dimethyl-1H-pyrazol-1-yl)methyl)-1,3,4-oxadiazol-2-yl)thio)methyl)benzoate] were 123.6 °C, greater than 50 µM, 37.8 µM, 41.8 µM and greater than 50 µM.
The compound `Brc1ccc(-c2nnc(SCc3ccccc3-c3ccccc3)o2)cc1` [Compound 42, 2-(([1,1′-biphenyl]-2-ylmethyl)thio)-5-(4-bromophenyl)-1,3,4-oxadiazole] gave a melting point of 120.5 °C. The EC50 in the data set with B/Florida/04/2006 worked out at 2.92 µM. In addition, the EC50 in data set [1] was determined as 1.62 µM. Also, the EC50 in the data set on A/Perth/16/2009 (H3N2) stood at 2.33 µM. Moreover, the CC50 in “in vitro” amounted to 14.8 µM.
Taken in the same sequence, the figures for `Cc1ccccc1CSc1ccc(C(=O)n2nc(C)c(Br)c2C)o1` [Compound 48, (4-bromo-3,5-dimethyl-1H-pyrazol-1-yl)(5-((2-methylbenzyl)thio)furan-2-yl)methanone] were 101.2 °C, 23.4 µM, 4.88 µM, 11.3 µM and 9.54 µM.
Taken in the same sequence, the figures for `O=C(NCc1nnc(SCc2ccccc2-c2ccccc2)o1)c1ccc(Br)cc1` [Compound 51, N-((5-(([1,1′-biphenyl]-2-ylmethyl)thio)-1,3,4-oxadiazol-2-yl)methyl)-4-bromobenzamide] were 135.4 °C, 6.02 µM, 4.01 µM, 5.04 µM and 28.6 µM.
`Brc1ccc(Nc2nnc(SCc3ccccc3-c3ccccc3)o2)cc1` [Compound 52, 5-(([1,1′-biphenyl]-2-ylmethyl)thio)-N-(4-bromophenyl)-1,3,4-oxadiazol-2-amine] showed a melting point of 158.2 °C. Also, in the data set on B/Florida/04/2006, the EC50 turned out to be 16.3 µM. Moreover, in data set [1], the EC50 is greater than 50 µM. Besides, the EC50 with A/Perth/16/2009 (H3N2) is 8.11 µM. This compound yielded a CC50 in “in vitro” greater than 50 µM.
`Cc1ccccc1Sc1nnc(Cn2nc(C)c(Br)c2C)o1` [Compound 53, 2-((4-bromo-3,5-dimethyl-1H-pyrazol-1-yl)methyl)-5-(o-tolylthio)-1,3,4-oxadiazole] gave a melting point of 103.6 °C. Moreover, the EC50 in the data set on B/Florida/04/2006 was 8.94 µM. Moreover, the EC50 in data set [1] came out at 0.12 µM. The EC50 with A/Perth/16/2009 (H3N2) was 8.57 µM. The same compound displayed a CC50 in “in vitro” of 7.91 µM.
In turn, `O=S(=O)(Cc1ccccc1-c1ccccc1)c1nnc(Cc2ccc(Br)cc2)o1` [Compound 60, 2-(([1,1′-biphenyl]-2-ylmethyl)sulfonyl)-5-(4-bromobenzyl)-1,3,4-oxadiazole] displayed a melting point of 134.2 °C. The EC50 in the data set with B/Florida/04/2006 was found to be 4.11 µM. Further, in data set [1], the EC50 turned out to be 12.1 µM. The EC50 in the data set with A/Perth/16/2009 (H3N2) was 6.36 µM. In addition, the CC50 in “in vitro” amounted to 8.46 µM.
Regarding `Cc1cc(Br)cc(C)c1Nc1nnc(SCc2ccccc2-c2ccccc2)o1` [Compound 61, 5-(([1,1′-biphenyl]-2-ylmethyl)thio)-N-(4-bromo-2,6-dimethylphenyl)-1,3,4-oxadiazol-2-amine], the melting point amounted to 211.2 °C. Moreover, the EC50 with B/Florida/04/2006 was found to be 2.3 µM. Besides, the EC50 in data set [1] was determined as 2.3 µM. The EC50 with A/Perth/16/2009 (H3N2) came to 2.61 µM. The compound also had a CC50 in the data set “in vitro” of 4.02 µM.
Compound `[O-][S+](Cc1ccccc1-c1ccccc1)c1nnc(Nc2ccc(Br)cc2)o1` (stereo not shown) [Compound 63, 5-(([1,1′-biphenyl]-2-ylmethyl)sulfinyl)-N-(4-bromophenyl)-1,3,4-oxadiazol-2-amine] returned a melting point of 199 °C. In the data set with B/Florida/04/2006, the EC50 was 7.06 µM. In addition, in data set [1], the EC50 came out at 2.61 µM. Besides, the EC50 in the data set on A/Perth/16/2009 (H3N2) was 6.05 µM. In “in vitro”, the CC50 was greater than 14.6 µM.
`O=C(c1ccccc1)c1nnc(Cc2ccc(Br)cc2)o1` [Compound 64, (5-(4-bromobenzyl)-1,3,4-oxadiazol-2-yl)(phenyl)methanone] gave a melting point of 139.9 °C. Moreover, the EC50 in the data set on B/Florida/04/2006 worked out at 40.5 µM. Further, the EC50 in data set [1] worked out at 5.97 µM. Moreover, the EC50 in the data set with A/Perth/16/2009 (H3N2) is greater than 50 µM. Also, in “in vitro”, the CC50 is greater than 50 µM.
For `Cc1cc(C)cc(Nc2nnc(SCc3ccccc3-c3ccccc3)o2)c1` [Compound 68, 5-(([1,1′-biphenyl]-2-ylmethyl)thio)-N-(3,5-dimethylphenyl)-1,3,4-oxadiazol-2-amine], the melting point amounted to 232.2 °C. Besides, the EC50 in the data set on B/Florida/04/2006 turned out to be 1.83 µM. Also, in data set [1], the EC50 stood at 2.77 µM. Also, in the data set with A/Perth/16/2009 (H3N2), the EC50 stood at 1.6 µM. In addition, the CC50 in the data set “in vitro” was greater than 50 µM.
Compound `c1ccc(Nc2nnc(SCc3ccccc3-c3ccccc3)o2)cc1` [Compound 71, 5-(([1,1′-biphenyl]-2-ylmethyl)thio)-N-phenyl-1,3,4-oxadiazol-2-amine] registered a melting point of 172.1 °C. The EC50 in the data set with B/Florida/04/2006 amounted to 22.8 µM. Moreover, the EC50 in data set [1] amounted to 21 µM. Also, the EC50 in the data set with A/Perth/16/2009 (H3N2) was determined as 14.2 µM. In the data set “in vitro”, this compound showed a CC50 of 6.53 µM.
`Cc1cccc(C)c1Nc1nnc(C(=O)c2ccccc2)o1` [Compound 76, (5-((2,6-dimethylphenyl)amino)-1,3,4-oxadiazol-2-yl)(phenyl)methanone] gave a melting point of 236.1 °C. In the data set with B/Florida/04/2006, the EC50 is greater than 50 µM. In addition, the EC50 in data set [1] was 14.1 µM. Besides, the EC50 with A/Perth/16/2009 (H3N2) is 14.1 µM. The compound further showed a CC50 in “in vitro” greater than 50 µM.

One may read the melting point as the temperature of the solid-liquid transition. The term CC50 denotes the concentration at which the toxic effect on the cells reaches its halfway point. A lower CC50 goes with harm at low concentration.
